Where “and” joins values, the source holds several entries; their conditions need not be identical. Identical values can stand only once. Inconclusive results and toxic doses are left out.
Tested on: P388 leukemia ip, CD2F1 mice, survival T/C
Experiment: NCI In Vivo Anticancer Drug Screen. Data for tumor model P388 Leukemia (intraperitoneal) in CD2F1 (CDF1) mice
Details: endpoint: median survival time, higher = longer survival
Procedure, shortened: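 Mice carrying the transplanted tumor received test compound or vehicle. Survival was recorded in each group, and the value is the treated-group measurement divided by that of the vehicle-treated control group.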

[1] = dose: 3.12 mg/kg/injection, schedule: Q01DX005 (ip), vehicle: saline with Tween-80
[2] = dose: 6.25 mg/kg/injection, schedule: Q01DX005 (ip), vehicle: saline with Tween-80
[3] = dose: 25.0 mg/kg/injection, schedule: Q01DX005 (ip), vehicle: saline with Tween-80
[4] = dose: 12.5 mg/kg/injection, schedule: Q01DX009 (ip), vehicle: saline
[5] = dose: 25.0 mg/kg/injection, schedule: Q01DX009 (ip), vehicle: saline
[6] = dose: 50.0 mg/kg/injection, schedule: Q01DX009 (ip), vehicle: saline with Tween-80
[7] = dose: 100.0 mg/kg/injection, schedule: Q01DX009 (ip), vehicle: saline with Tween-80
[8] = dose: 50.0 mg/kg/injection, schedule: Q01DX005 (ip), vehicle: Klucel (hydroxypropylcellulose) (HPC)
[9] = dose: 100.0 mg/kg/injection, schedule: Q01DX005 (ip), vehicle: Klucel (hydroxypropylcellulose) (HPC)
[10] = dose: 200.0 mg/kg/injection, schedule: Q01DX005 (ip), vehicle: Klucel (hydroxypropylcellulose) (HPC)
[11] = dose: 50.0 mg/kg/injection, schedule: Q01DX005 (ip), vehicle: saline with Tween-80
[12] = dose: 100.0 mg/kg/injection, schedule: Q01DX005 (ip), vehicle: saline with Tween-80
[13] = dose: 200.0 mg/kg/injection, schedule: Q01DX005 (ip), vehicle: saline with Tween-80
[14] = dose: 25.0 mg/kg/injection, schedule: Q01DX009 (ip), vehicle: saline with Tween-80
[15] = dose: 100.0 mg/kg/injection, schedule: Q01DX001 (ip), vehicle: saline with Tween-80
[16] = dose: 200.0 mg/kg/injection, schedule: Q01DX001 (ip), vehicle: saline with Tween-80
[17] = dose: 60.0 mg/kg/injection, schedule: Q01DX005 (ip), vehicle: Klucel (hydroxypropylcellulose) (HPC)
[18] = dose: 120.0 mg/kg/injection, schedule: Q01DX005 (ip), vehicle: Klucel (hydroxypropylcellulose) (HPC)
[19] = dose: 240.0 mg/kg/injection, schedule: Q01DX005 (ip), vehicle: Klucel (hydroxypropylcellulose) (HPC)
[20] = dose: 100.0 mg/kg/injection, schedule: Q01DX009 (ip), vehicle: saline sonified

## CCC(/C=N/N=C(N)N)=N\N=C(N)N
dose: 50.0 mg/kg/injection, schedule: Q01DX005 (ip), vehicle: saline
  T/C: 110 % of control
dose: 100.0 mg/kg/injection, schedule: Q01DX005 (ip), vehicle: saline
  T/C: 100 % of control

## Nc1n[nH][nH]c1=O
dose: 60.0 mg/kg/injection, schedule: Q01DX005 (ip), vehicle: saline
  T/C: 100 % of control
dose: 120.0 mg/kg/injection, schedule: Q01DX005 (ip), vehicle: saline
  T/C: 116 % of control
dose: 240.0 mg/kg/injection, schedule: Q01DX005 (ip), vehicle: saline
  T/C: 100 % of control

## NNC(=O)c1ccc(OCc2nc3ccccc3[nH]2)cc1
[1]
  T/C: 100 % of control
[2]
  T/C: 100 % of control
dose: 12.5 mg/kg/injection, schedule: Q01DX005 (ip), vehicle: saline with Tween-80
  T/C: 98 % of control
[3]
  T/C: 94 % of control

## Cc1cc(Br)c(OC(=O)Nc2cccc(Cl)c2Cl)cc1C
[4]
  T/C: 88 % of control
[5]
  T/C: 99 % of control
[6]
  T/C: 88 % of control
dose: 50.0 mg/kg/injection, schedule: Q01DX009 (ip), vehicle: saline
  T/C: 119 % of control
[7]
  T/C: 114 % of control

## CCOC(=O)N1N=C(c2ccccc2)OC2(N3CCCC3)CCC(C(C)(C)C)CC12 (stereo unspecified)
[8]
  T/C: 89 % of control
[9]
  T/C: 96 % of control
[10]
  T/C: 96 % of control

## NP(=O)(Oc1c2occc2cc2ccc(=O)oc12)N(CCCl)CCCl (stereo unspecified)
[11]
  T/C: 111 % of control
[12]
  T/C: 99 % of control
[13]
  T/C: 114 % of control

## CC(=O)CC(=O)c1ccc(C)cc1.CC(=O)CC(=O)c1ccc(C)cc1.[Cu]
[14]
  T/C: 98 % of control
[6]
  T/C: 108 % of control and 113 % of control

## Brc1cnc2nc(Cc3ccccc3)[nH]c2c1
[15]
  T/C: 97 % of control
[16]
  T/C: 113 % of control
dose: 400.0 mg/kg/injection, schedule: Q01DX001 (ip), vehicle: saline with Tween-80
  T/C: 97 % of control

## c1ncn(Cn2cncn2)n1
[17]
  T/C: 105 % of control
[18]
  T/C: 107 % of control
[19]
  T/C: 101 % of control

## Oc1ccc(/C=C/c2cc(O)cc3c2C(c2cc(O)cc(O)c2)C(c2ccc(O)c(O)c2)O3)cc1 (stereo unspecified)
dose: 7.5 mg/kg/injection, schedule: Q01DX001 (ip), vehicle: Klucel + Tween-80
  T/C: 94 % of control
dose: 15.0 mg/kg/injection, schedule: Q01DX001 (ip), vehicle: Klucel + Tween-80
  T/C: 94 % of control
dose: 30.0 mg/kg/injection, schedule: Q01DX001 (ip), vehicle: Klucel + Tween-80
  T/C: 103 % of control

## Cc1noc(C)c1C1(Br)C(Br)CCCC1Br (stereo unspecified)
dose: 100.0 mg/kg/injection, schedule: Q04DX002 (ip), vehicle: saline with Tween-80
  T/C: 105 % of control
dose: 200.0 mg/kg/injection, schedule: Q04DX002 (ip), vehicle: saline with Tween-80
  T/C: 104 % of control
dose: 400.0 mg/kg/injection, schedule: Q04DX002 (ip), vehicle: saline with Tween-80
  T/C: 114 % of control

## CC(=O)c1cc2c(cc1C(C)C)CC[C@H]1[C@](C)(C#N)CCC[C@]21C
dose: 50.0 mg/kg/injection, schedule: Q01DX009 (ip), vehicle: saline sonified
  T/C: 86 % of control
[20]
  T/C: 90 % of control

## COc1ccc(/C=C2\CCOc3ccc(C)cc3C2=O)cc1
dose: 100.0 mg/kg/injection, schedule: Q04DX003 (ip), vehicle: Klucel (hydroxypropylcellulose) (HPC)
  T/C: 94 % of control
dose: 200.0 mg/kg/injection, schedule: Q04DX003 (ip), vehicle: Klucel (hydroxypropylcellulose) (HPC)
  T/C: 96 % of control
dose: 400.0 mg/kg/injection, schedule: Q04DX003 (ip), vehicle: Klucel (hydroxypropylcellulose) (HPC)
  T/C: 102 % of control

## O=C1CC2(C(=O)O1)C1C(=O)OC(=O)C1C1C=CC=NN12 (stereo unspecified)
[14]
  T/C: 90 % of control
[6]
  T/C: 93 % of control
[7]
  T/C: 93 % of control

## CCCOC(=O)C(F)C(Br)C(=O)OCCC (stereo unspecified)
[14]
  T/C: 100 % of control and 107 % of control
[6]
  T/C: 105 % of control and 120 % of control
[7]
  T/C: 111 % of control and 118 % of control
dose: 200.0 mg/kg/injection, schedule: Q01DX009 (ip), vehicle: saline with Tween-80
  T/C: 123 % of control

## CCCCN1CC(=O)N2CCCC(c3ccccc3)N2C(=O)C1 (stereo unspecified)
[11]
  T/C: 103 % of control
[12]
  T/C: 105 % of control
[13]
  T/C: 103 % of control

## Cc1ccc2c(c1)sc1nncn12
dose: 50.0 mg/kg/injection, schedule: Q01DX009 (ip), vehicle: Klucel (hydroxypropylcellulose) (HPC)
  T/C: 94 % of control
dose: 100.0 mg/kg/injection, schedule: Q01DX009 (ip), vehicle: Klucel (hydroxypropylcellulose) (HPC)
  T/C: 105 % of control

## CCCCOP(O)(=S)OCCCC.[Sm]
[15]
  T/C: 92 % of control
[16]
  T/C: 116 % of control

## CCOc1cc2c(cc1C(C)c1ccc(OC(C)C)cc1)OCO2 (stereo unspecified)
[3]
  T/C: 108 % of control
[11]
  T/C: 106 % of control
[12]
  T/C: 103 % of control
[13]
  T/C: 103 % of control

## CCC(/C=C/c1ccccc1)=N\NC(=O)c1ccccc1
[11]
  T/C: 96 % of control
[12]
  T/C: 96 % of control
[13]
  T/C: 95 % of control

## O=C(c1ccccc1)c1c(-c2ccccc2)noc1-c1ccccc1
dose: 100.0 mg/kg/injection, schedule: Q04DX003 (ip), vehicle: saline
  T/C: 109 % of control
dose: 200.0 mg/kg/injection, schedule: Q04DX003 (ip), vehicle: saline
  T/C: 100 % of control
dose: 400.0 mg/kg/injection, schedule: Q04DX003 (ip), vehicle: saline
  T/C: 108 % of control

## N#CCC(O)(/C=C/c1ccccc1)c1ccccc1 (stereo unspecified)
[20]
  T/C: 91 % of control
dose: 200.0 mg/kg/injection, schedule: Q01DX009 (ip), vehicle: saline sonified
  T/C: 86 % of control
dose: 400.0 mg/kg/injection, schedule: Q01DX009 (ip), vehicle: saline sonified
  T/C: 95 % of control

## CCCC(CC(=O)O)c1c2c(c(O)c3c1OC(C)C(C)C3=O)C=CC(C)(C)O2 (stereo unspecified)
[17]
  T/C: 97 % of control
[18]
  T/C: 103 % of control
[19]
  T/C: 93 % of control

## CCOc1c(N=Nc2ccc(Cl)cc2Cl)c(C)nn1C(N)=S
dose: 15.0 mg/kg/injection, schedule: Q01DX005 (ip), vehicle: Klucel (hydroxypropylcellulose) (HPC)
  T/C: 95 % of control
dose: 30.0 mg/kg/injection, schedule: Q01DX005 (ip), vehicle: Klucel (hydroxypropylcellulose) (HPC)
  T/C: 90 % of control

## CCN(CC)CC.[CH-]1CCCCC1.[CH-]1CCCCC1.[CH-]1CCCCC1.[Cl-].[Cl-].[Sn+4]
[1]
  T/C: 107 % of control
[2]
  T/C: 110 % of control

## C=CC[n+]1ccc(/C=N\NC(N)=S)c2ccccc21
[6]
  T/C: 116 % of control
[7]
  T/C: 110 % of control

## O=C1CS/C(=N\C(=O)Nc2cccc(C(F)(F)F)c2)N1
[4]
  T/C: 103 % of control
[5]
  T/C: 94 % of control
[6]
  T/C: 87 % of control

## O=C1CCCCCCCCC1O (stereo unspecified)
dose: 100.0 mg/kg/injection, schedule: Q04DX003 (ip), vehicle: saline with Tween-80
  T/C: 106 % of control
dose: 200.0 mg/kg/injection, schedule: Q04DX003 (ip), vehicle: saline with Tween-80
  T/C: 108 % of control
dose: 400.0 mg/kg/injection, schedule: Q04DX003 (ip), vehicle: saline with Tween-80
  T/C: 110 % of control

## COC(=O)c1nn(-c2ccccc2)c2c1C(=O)c1ccccc1C2=O
[8]
  T/C: 97 % of control
[9]
  T/C: 92 % of control
[10]
  T/C: 98 % of control

## Cc1ccc(C(=O)C2C(=O)C(=O)OC2C2OC(=O)C(=O)C2C(=O)c2ccc(C)cc2)cc1 (stereo unspecified)
dose: 60.0 mg/kg/injection, schedule: Q01DX005 (ip), vehicle: saline + Tween-80 + alcohol
  T/C: 101 % of control
dose: 120.0 mg/kg/injection, schedule: Q01DX005 (ip), vehicle: saline + Tween-80 + alcohol
  T/C: 104 % of control
dose: 240.0 mg/kg/injection, schedule: Q01DX005 (ip), vehicle: saline + Tween-80 + alcohol
  T/C: 102 % of control

## O=Cc1cc2ccc3ccccc3c2[nH]1
[16]
  T/C: 90 % of control

## CC1(C)CC(OP(=[Se])(c2ccccc2)c2ccccc2)CC(C)(C)N1O
dose: 12.5 mg/kg/injection, schedule: Q01DX001 (ip), vehicle: Klucel (hydroxypropylcellulose) (HPC)
  T/C: 96 % of control
dose: 25.0 mg/kg/injection, schedule: Q01DX001 (ip), vehicle: Klucel (hydroxypropylcellulose) (HPC)
  T/C: 99 % of control
dose: 50.0 mg/kg/injection, schedule: Q01DX001 (ip), vehicle: Klucel (hydroxypropylcellulose) (HPC)
  T/C: 104 % of control

Reference: PubChem BioAssay AID330 (DTP/NCI, 2004)
